Reference: ChEMBL document CHEMBL2073748, “Na(+)-dependent carnitine transport by organic cation transporter (OCTN2): its pharmacological and toxicological relevance” (J Pharmacol Exp Ther, 1999)
One block for each compound: values may come before it. Starred links: 1 amine or outer side, 2 acyl side, 3 side chain; linkers in the order of their positions; H or OH if unused. Positions of bridges follow the written chain, without caps; N, C: chain ends. Non-standard residues stand in square brackets, D forms with d. Residues, ends and D or L forms follow the SMILES beside them. Chains are numbered I, II in the order given. Actinocin(9to1) = Cc1c2oc3c(C)ccc(C(=O)[*:1])c3nc-2c(C(=O)[*:2])c(N)c1=O; NMeV = CN[C@H](C(=O)O)C(C)C; Sar = CNCC(=O)O

Key:
[1] = target: T1, OCTN2 (organic cation/carnitine transporter 2) (Homo sapiens, UniProt O76082); assay: TP_TRANSPORTER: inhibition of Carnitine uptake (Carnitine: 0.010? uM, S-methylmethionine sufonium: 500 uM) in OCTN2-expressing HEK293 cells; format: functional, cell-based; parameters: scale not given: the % may be the effect or the level left; conditions: HEK293 cells that express OCTN2, probe Carnitine, read-out: Activity
T1 sequence (O76082 whole entry): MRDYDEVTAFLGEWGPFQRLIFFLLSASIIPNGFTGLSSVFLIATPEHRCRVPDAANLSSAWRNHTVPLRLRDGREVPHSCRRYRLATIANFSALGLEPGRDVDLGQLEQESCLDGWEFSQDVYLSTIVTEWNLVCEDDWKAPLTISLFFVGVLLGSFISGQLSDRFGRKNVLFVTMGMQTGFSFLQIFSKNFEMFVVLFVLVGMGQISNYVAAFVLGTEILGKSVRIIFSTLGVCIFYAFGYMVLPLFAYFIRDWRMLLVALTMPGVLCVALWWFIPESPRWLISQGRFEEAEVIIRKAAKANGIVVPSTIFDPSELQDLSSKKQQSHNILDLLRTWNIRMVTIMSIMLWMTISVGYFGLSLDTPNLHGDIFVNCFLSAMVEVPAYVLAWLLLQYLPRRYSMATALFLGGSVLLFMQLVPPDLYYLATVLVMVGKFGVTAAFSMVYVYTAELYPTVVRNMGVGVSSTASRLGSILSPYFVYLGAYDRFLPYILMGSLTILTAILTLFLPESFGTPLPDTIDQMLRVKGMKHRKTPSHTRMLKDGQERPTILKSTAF

[2] = target: T1, OCTN2 (organic cation/carnitine transporter 2); assay: TP_TRANSPORTER: inhibition of Carnitine uptake (Carnitine: 0.010? uM, MPP+: 100 uM) in OCTN2-expressing HEK293 cells; format: functional, cell-based; parameters: scale not given: the % may be the effect or the level left; conditions: HEK293 cells that express OCTN2, probe Carnitine, read-out: Activity
[3] = target: T2, Organic cation/carnitine transporter 2 (Homo sapiens, UniProt O76082); assay: TP_TRANSPORTER: uptake in OCTN2-expressing HEK293 cells; format: functional, cell-based
T2 sequence (O76082 whole entry): T1 sequence (O76082 whole entry)

[4] = target: T1, OCTN2 (organic cation/carnitine transporter 2); assay: TP_TRANSPORTER: inhibition of Carnitine uptake (Carnitine: 0.010? uM, Aldosterone: 500 uM) in OCTN2-expressing HEK293 cells; format: functional, cell-based; parameters: scale not given: the % may be the effect or the level left; conditions: HEK293 cells that express OCTN2, probe Carnitine, read-out: Activity
[5] = target: T2, Organic cation/carnitine transporter 2; assay: TP_TRANSPORTER: inhibition of Carnitine uptake (Carnitine: 0.010? uM, Arginine: 500 uM) in OCTN2-expressing HEK293 cells; format: functional, cell-based; conditions: hek293, 500 µM
[6] = target: T2, Organic cation/carnitine transporter 2; assay: TP_TRANSPORTER: inhibition of Carnitine uptake (Carnitine: 0.010? uM, Carnosine: 500 uM) in OCTN2-expressing HEK293 cells; format: functional, cell-based; conditions: hek293, 500 µM
[7] = target: T1, OCTN2 (organic cation/carnitine transporter 2); assay: TP_TRANSPORTER: inhibition of Carnitine uptake (Carnitine: 0.010? uM, Cefsulodin: 500 uM) in OCTN2-expressing HEK293 cells; format: functional, cell-based; parameters: scale not given: the % may be the effect or the level left; conditions: HEK293 cells that express OCTN2, probe Carnitine, read-out: Activity
[8] = target: T2, Organic cation/carnitine transporter 2; assay: TP_TRANSPORTER: inhibition of Carnitine uptake (Carnitine: 0.010? uM, Cephaloglycin: 500 uM) in OCTN2-expressing HEK293 cells; format: functional, cell-based; conditions: hek293, 500 µM
[9] = target: T2, Organic cation/carnitine transporter 2; assay: TP_TRANSPORTER: inhibition of Carnitine uptake (Carnitine: 0.010? uM, Cephalotin: 500 uM) in OCTN2-expressing HEK293 cells; format: functional, cell-based; conditions: hek293, 500 µM
[10] = target: T1, OCTN2 (organic cation/carnitine transporter 2); assay: in vitro; conditions: HEK293 cells that express OCTN2, probe Carnitine
Description: TP_TRANSPORTER: inhibition of Carnitine uptake (Carnitine: 0.010? uM, Cimetidine: 500 uM) in OCTN2-expressing HEK293 cells

[11] = target: T1, OCTN2 (organic cation/carnitine transporter 2); assay: in vitro; conditions: HEK293 cells that express OCTN2, probe Carnitine; remark: listed apart in the source
Description: TP_TRANSPORTER: inhibition of Carnitine uptake (Carnitine: 0.010? uM, Clonidine: 500 uM) in OCTN2-expressing HEK293 cells

[12] = target: T1, OCTN2 (organic cation/carnitine transporter 2); assay: TP_TRANSPORTER: inhibition of Carnitine uptake (Carnitine: 0.010? uM, Corticosterone: 500 uM) in OCTN2-expressing HEK293 cells; format: functional, cell-based; parameters: scale not given: the % may be the effect or the level left; conditions: HEK293 cells that express OCTN2, probe Carnitine, read-out: Activity
[13] = target: T2, Organic cation/carnitine transporter 2; assay: TP_TRANSPORTER: inhibition of Carnitine uptake (Carnitine: 0.010? uM, Creatine: 500 uM) in OCTN2-expressing HEK293 cells; format: functional, cell-based; conditions: hek293, 500 µM
[14] = target: T2, Organic cation/carnitine transporter 2; assay: TP_TRANSPORTER: inhibition of Carnitine uptake (Carnitine: 0.010? uM, Creatinine: 500 uM) in OCTN2-expressing HEK293 cells; format: functional, cell-based; conditions: hek293, 500 µM
[15] = target: T1, OCTN2 (organic cation/carnitine transporter 2); assay: TP_TRANSPORTER: inhibition of Carnitine uptake (Carnitine: 0.010? uM, Actinomycin D: 100 uM) in OCTN2-expressing HEK293 cells; format: functional, cell-based; parameters: scale not given: the % may be the effect or the level left; conditions: HEK293 cells that express OCTN2, probe Carnitine, read-out: Activity
[16] = target: T1, OCTN2 (organic cation/carnitine transporter 2); assay: TP_TRANSPORTER: inhibition of Carnitine uptake (Carnitine: 0.010? uM, Emetine: 500 uM) in OCTN2-expressing HEK293 cells; format: functional, cell-based; parameters: scale not given: the % may be the effect or the level left; conditions: HEK293 cells that express OCTN2, probe Carnitine, read-out: Activity
[17] = target: T2, Organic cation/carnitine transporter 2; assay: TP_TRANSPORTER: inhibition of Carnitine uptake (Carnitine: 0.010? uM, Furosemide: 500 uM) in OCTN2-expressing HEK293 cells; format: functional, cell-based; conditions: hek293, 500 µM

Compound: C[S+](C)CC[C@H](N)C(=O)[O-]
activity at 500 µM [1]: 8.7%

Compound: C[n+]1ccc(-c2ccccc2)cc1
activity at 100 µM [2]: 69.8% | Activity [3]: is not a substrate [-]

Compound: N=C(N)NCCC[C@H](N)C(=O)O [ARGININE]
Activity [5]: is not an inhibitor [-]

Compound: CN/C(=N/CCSCc1nc[nH]c1C)NC#N [CIMETIDINE]
activity at 500 µM [10]: 66.4% | Activity [3]: is not a substrate [-]

Compound: Clc1cccc(Cl)c1N=C1NCCN1 [CLONIDINE]
activity at 500 µM [11]: 67.6%

Compound: CN1CC(=O)NC1=N [CREATININE]
Activity [14]: is not an inhibitor [-]

Compound: CC[C@H]1CN2CCc3cc(OC)c(OC)cc3[C@@H]2C[C@@H]1C[C@H]1NCCc2cc(OC)c(OC)cc21 [EMETINE]
activity at 500 µM [16]: 16.6%

Compound: NS(=O)(=O)c1cc(C(=O)O)c(NCc2ccco2)cc1Cl [FUROSEMIDE]
Activity [17]: is not an inhibitor [-]

Other lines, results leading:

activity at 500 µM [4]: 37.1%
Compound: C[C@]12CCC(=O)C=C1CC[C@@H]1[C@@H]2[C@@H](O)C[C@]2(C=O)[C@@H](C(=O)CO)CC[C@@H]12 [ALDOSTERONE]

Activity [6]: is not an inhibitor [-]
Compound: NCCC(=O)N[C@@H](Cc1cnc[nH]1)C(=O)O [CARNOSINE]

activity at 500 µM [7]: 32.8%
Compound: NC(=O)c1cc[n+](CC2=C(C(=O)O)N3C(=O)[C@@H](NC(=O)[C@@H](c4ccccc4)S(=O)(=O)[O-])[C@H]3SC2)cc1 [CEFSULODIN]

Activity [8]: is not an inhibitor [-]
Compound: CC(=O)OCC1=C(C(=O)O)N2C(=O)[C@@H](NC(=O)[C@H](N)c3ccccc3)[C@H]2SC1 [CEPHALOGLYCIN]

Activity [9]: is not an inhibitor [-]
Compound: CC(=O)OCC1=C(C(=O)O)N2C(=O)[C@@H](NC(=O)Cc3cccs3)[C@H]2SC1 [CEPHALOTHIN]

activity at 500 µM [12]: 9.3%
Compound: C[C@]12C[C@H](O)[C@H]3[C@@H](CCC4=CC(=O)CC[C@@]43C)[C@@H]1CC[C@@H]2C(=O)CO [CORTICOSTERONE]

Activity [13]: is not an inhibitor [-]
Compound: CN(CC(=O)O)C(=N)N [CREATINE]

Activity [3]: is not a substrate [-] | activity at 100 µM [15]: 69%
Compound: Cc1c2oc3c(C)ccc(C(=O)N[C@@H]4C(=O)N[C@H](C(C)C)C(=O)N5CCC[C@H]5C(=O)N(C)CC(=O)N(C)[C@@H](C(C)C)C(=O)O[C@@H]4C)c3nc-2c(C(=O)N[C@@H]2C(=O)N[C@H](C(C)C)C(=O)N3CCC[C@H]3C(=O)N(C)CC(=O)N(C)[C@@H](C(C)C)C(=O)O[C@@H]2C)c(N)c1=O [DACTINOMYCIN] (I: T[dV]P[Sar][NMeV] / II: T[dV]P[Sar][NMeV]; ester I:1-I:C, II:1-II:C; linker I:N-II:N via Actinocin(9to1))
